Experimental data: ChEMBL document CHEMBL1649413, “Structure-activity relationship of 4(5)-aryl-2-amino-1H-imidazoles, N1-substituted 2-aminoimidazoles and imidazo[1,2-a]pyrimidinium salts as inhibitors of biofilm formation by Salmonella typhimurium and Pseudomonas aeruginosa” (J Med Chem, 2011)
pIC50: −log10 of the molar value. Active and inactive are the calls of the source. The calls are words filed in the database; no cut-off is given here.

What was measured:
Pseudomonas aeruginosa [1] = experiment: Antibiofilm activity in Pseudomonas aeruginosa assessed as inhibition of biofilm formation at 25 degC after 24 hrs; type: functional, organism-based
Salmonella typhimurium [2] = experiment: Antibiofilm activity in Salmonella Typhimurium ATCC 14028 assessed as inhibition of biofilm formation at 25 degC after 24 hrs; type: functional, organism-based, Salmonella enterica subsp. enterica serovar Typhimurium; conditions: Salmonella enterica, ATCC 14028, 24 h
Salmonella typhimurium [3] = experiment: Antimicrobial activity against Salmonella Typhimurium ATCC 14028 assessed as inhibition of planktonic growth at 10 uM at 25 degC after 24 hrs; type: functional, organism-based; conditions: Salmonella enterica subsp. enterica serovar Typhimurium
Salmonella typhimurium [4] = experiment: Antimicrobial activity against Salmonella Typhimurium ATCC 14028 assessed as inhibition of planktonic growth at 20 uM at 25 degC after 24 hrs; type: functional, organism-based; conditions: Salmonella enterica subsp. enterica serovar Typhimurium
Salmonella typhimurium [5] = experiment: Antimicrobial activity against Salmonella Typhimurium ATCC 14028 assessed as inhibition of planktonic growth at 400 uM at 25 degC after 24 hrs; type: functional, organism-based; conditions: Salmonella enterica subsp. enterica serovar Typhimurium
Pseudomonas aeruginosa [6] = experiment: Antimicrobial activity against Pseudomonas aeruginosa assessed as inhibition of planktonic growth at 20 uM at 25 degC after 24 hrs; type: functional, organism-based

Cn1c(-c2ccccc2)cnc1N
pIC50 (Pseudomonas aeruginosa [1]): 4.02
pIC50 (Salmonella typhimurium [2]): 3.37

CCCCCCn1c(-c2ccc(-c3ccccc3)cc2)cnc1N
inhibition (Salmonella typhimurium [3]): Active
pIC50 (Pseudomonas aeruginosa [1]): 4.49
pIC50 (Salmonella typhimurium [2]): 4.92
inhibition (Salmonella typhimurium [4]): Active

CCCCn1c(-c2ccc(F)cc2)cnc1N
pIC50 (Pseudomonas aeruginosa [1]): 4.25
pIC50 (Salmonella typhimurium [2]): 4.25

Cc1ccc(-c2cnc(N)n2C)cc1
pIC50 (Pseudomonas aeruginosa [1]): 4.50
pIC50 (Salmonella typhimurium [2]): 4.21

CCCCNc1ncccn1
inhibition (Salmonella typhimurium [5]): inactive

COc1ccc(-c2[nH]c(N)nc2-c2ccccc2)cc1
pIC50 (Salmonella typhimurium [2]): 4.11

Cc1ccc(-c2cnc(N)[nH]2)cc1
pIC50 (Pseudomonas aeruginosa [1]): 4.34
pIC50 (Salmonella typhimurium [2]): 4.11

C#CCN(C)c1ncccn1
inhibition (Salmonella typhimurium [5]): inactive

c1cnc(NC2CCCCCC2)nc1
inhibition (Salmonella typhimurium [5]): inactive

CCn1c(-c2ccc(Br)cc2)cnc1N
pIC50 (Pseudomonas aeruginosa [1]): 4.22
pIC50 (Salmonella typhimurium [2]): 3.90

CCCCn1c(-c2ccc(Br)cc2)cnc1N
pIC50 (Pseudomonas aeruginosa [1]): 4.73
pIC50 (Salmonella typhimurium [2]): 4.79

N#Cc1ccc(-c2cnc(N)[nH]2)cc1
pIC50 (Salmonella typhimurium [2]): 3.50

c1cnc(NC2CC2)nc1
inhibition (Salmonella typhimurium [5]): inactive

CCCCCNc1ncccn1
inhibition (Salmonella typhimurium [5]): inactive

c1cnc(NC2CCCCCCCCCCC2)nc1
inhibition (Salmonella typhimurium [5]): inactive

Nc1ncc(-c2ccc(F)cc2)n1Cc1ccccc1
pIC50 (Pseudomonas aeruginosa [1]): 4.49
pIC50 (Salmonella typhimurium [2]): 4.43

CCn1c(-c2ccc(F)cc2)cnc1N
pIC50 (Pseudomonas aeruginosa [1]): 4.17
pIC50 (Salmonella typhimurium [2]): 3.54

C[n+]1c(-c2cccc([N+](=O)[O-])c2)cn2cccnc21.[O-][Cl+3]([O-])([O-])[O-]
pIC50 (Pseudomonas aeruginosa [1]): < 3.10
pIC50 (Salmonella typhimurium [2]): 3.37

Nc1ncc(-c2ccc(-c3ccccc3)cc2)n1C1CCC1
pIC50 (Pseudomonas aeruginosa [1]): 4.61
pIC50 (Salmonella typhimurium [2]): 4.58

COc1cccc(Nc2ncccn2)c1
inhibition (Salmonella typhimurium [5]): inactive

CCCCCCCCCCCCCCn1c(-c2ccc(-c3ccccc3)cc2)cnc1N
pIC50 (Pseudomonas aeruginosa [1]): < 3.40
pIC50 (Salmonella typhimurium [2]): < 3.10

CCCCCCCCCNc1ncccn1
inhibition (Salmonella typhimurium [5]): inactive

CC(C)[n+]1c(-c2ccc([N+](=O)[O-])cc2)cn2cccnc21.[O-][Cl+3]([O-])([O-])[O-]
pIC50 (Pseudomonas aeruginosa [1]): < 3.10
pIC50 (Salmonella typhimurium [2]): < 3.10

CCCCCCCCNc1ncccn1
inhibition (Salmonella typhimurium [5]): inactive

CCCCCCCCCCCCCNc1ncccn1
inhibition (Salmonella typhimurium [5]): inactive

c1cnc(NC2CCCCCCC2)nc1
inhibition (Salmonella typhimurium [5]): inactive

CCCNc1ncccn1
inhibition (Salmonella typhimurium [5]): inactive

Cn1c(-c2ccc(Cl)cc2)cnc1N
pIC50 (Pseudomonas aeruginosa [1]): 3.95
pIC50 (Salmonella typhimurium [2]): 3.97

CC[n+]1c(-c2ccc([N+](=O)[O-])cc2)cn2cccnc21.[O-][Cl+3]([O-])([O-])[O-]
pIC50 (Pseudomonas aeruginosa [1]): < 3.10
pIC50 (Salmonella typhimurium [2]): < 3.10

Brc1ccccc1Nc1ncccn1
inhibition (Salmonella typhimurium [5]): inactive

CCCC[n+]1c(-c2ccc([N+](=O)[O-])cc2)cn2cccnc21.[O-][Cl+3]([O-])([O-])[O-]
pIC50 (Pseudomonas aeruginosa [1]): < 3.10
pIC50 (Salmonella typhimurium [2]): < 3.40

Nc1ncc(-c2ccccc2)n1C1CCCC1
pIC50 (Pseudomonas aeruginosa [1]): 4.90
inhibition (Pseudomonas aeruginosa [6]): inactive
pIC50 (Salmonella typhimurium [2]): 4.15

CN(C)c1ncccn1
inhibition (Salmonella typhimurium [5]): inactive

c1ccc(CNc2ncccn2)cc1
inhibition (Salmonella typhimurium [5]): inactive

CCCCn1c(-c2ccc([N+](=O)[O-])cc2)cnc1N
pIC50 (Pseudomonas aeruginosa [1]): 3.43
pIC50 (Salmonella typhimurium [2]): 3.94

Nc1ncc(-c2ccc(Cl)cc2)n1C1CC1
pIC50 (Pseudomonas aeruginosa [1]): 4.89
inhibition (Pseudomonas aeruginosa [6]): inactive
pIC50 (Salmonella typhimurium [2]): 4.26

CCCCCCCCCCNc1ncccn1
inhibition (Salmonella typhimurium [5]): inactive

COc1ccc(Cn2c(-c3ccccc3)cnc2N)cc1OC
pIC50 (Pseudomonas aeruginosa [1]): 3.80
pIC50 (Salmonella typhimurium [2]): 3.81

CCCCCn1c(-c2ccc(-c3ccccc3)cc2)cnc1N
pIC50 (Pseudomonas aeruginosa [1]): 4.13
pIC50 (Salmonella typhimurium [2]): 5.04

Nc1ncc(-c2ccc(-c3ccccc3)cc2)n1C1CCCCCCCCCCC1
pIC50 (Pseudomonas aeruginosa [1]): < 3.10
pIC50 (Salmonella typhimurium [2]): < 3.10

c1ccc(Nc2ncccn2)cc1
inhibition (Salmonella typhimurium [5]): inactive

C=CCNc1ncccn1
inhibition (Salmonella typhimurium [5]): inactive

COc1ccc(CCNc2ncccn2)cc1
inhibition (Salmonella typhimurium [5]): inactive

CC(C)(C)[Si](C)(C)Oc1ccc(CNc2ncccn2)cc1
inhibition (Salmonella typhimurium [5]): inactive

CCCCCCCCCCCn1c(-c2ccc(-c3ccccc3)cc2)cnc1N
pIC50 (Pseudomonas aeruginosa [1]): < 3.40
pIC50 (Salmonella typhimurium [2]): 4.22

Cc1cccc(Nc2ncccn2)c1
inhibition (Salmonella typhimurium [5]): inactive

Nc1nc(-c2ccc(Cl)cc2)c(-c2cc(F)cc(F)c2)[nH]1
pIC50 (Salmonella typhimurium [2]): 4.14

COc1ccc(-c2cnc(N)[nH]2)cc1
pIC50 (Pseudomonas aeruginosa [1]): 3.73
pIC50 (Salmonella typhimurium [2]): 3.92

Nc1nc(-c2ccccc2)c(-c2ccc(Cl)cc2)[nH]1
pIC50 (Salmonella typhimurium [2]): 4.33

CCCCCCCCn1c(-c2ccc(-c3ccc([N+](=O)[O-])cc3)cc2)cnc1N
pIC50 (Pseudomonas aeruginosa [1]): < 3.10
pIC50 (Salmonella typhimurium [2]): 3.93

CS(=O)(=O)c1ccc(-c2cnc(N)[nH]2)cc1
pIC50 (Pseudomonas aeruginosa [1]): < 3.10
pIC50 (Salmonella typhimurium [2]): < 3.10

Nc1ncc(-c2ccc(Cl)cc2)n1Cc1ccccc1
pIC50 (Pseudomonas aeruginosa [1]): 4.83
pIC50 (Salmonella typhimurium [2]): 4.55

Cc1ccc(CNc2ncccn2)c(C)c1
inhibition (Salmonella typhimurium [5]): inactive

CC(C)C[n+]1c(-c2ccc([N+](=O)[O-])cc2)cn2cccnc21.[O-][Cl+3]([O-])([O-])[O-]
pIC50 (Pseudomonas aeruginosa [1]): < 3.10
pIC50 (Salmonella typhimurium [2]): 3.39

c1cnc(NC2CCCCC2)nc1
inhibition (Salmonella typhimurium [5]): inactive

CCCCCCCCCCCCCCNc1ncccn1
inhibition (Salmonella typhimurium [5]): inactive

COc1ccc(CCn2c(-c3ccccc3)cnc2N)cc1OC
pIC50 (Pseudomonas aeruginosa [1]): 4.28
pIC50 (Salmonella typhimurium [2]): 3.73

Cn1c(-c2ccc(C#N)cc2)cnc1N
pIC50 (Pseudomonas aeruginosa [1]): 3.48
pIC50 (Salmonella typhimurium [2]): < 3.40

CCCCCCNc1ncccn1
inhibition (Salmonella typhimurium [5]): inactive

Nc1ncc(-c2ccc(Cl)cc2)n1C1CCCCCCCCCCC1
pIC50 (Pseudomonas aeruginosa [1]): < 3.10
pIC50 (Salmonella typhimurium [2]): 3.92

Nc1ncc(-c2ccccc2)n1C1CC1
pIC50 (Pseudomonas aeruginosa [1]): 4.46
pIC50 (Salmonella typhimurium [2]): 4.05

Cc1ccc(-c2nc(N)n(-c3ccccc3)c2-c2ccc(Cl)cc2)cc1
pIC50 (Pseudomonas aeruginosa [1]): < 3.10
pIC50 (Salmonella typhimurium [2]): < 3.40

Nc1ncc(-c2ccccc2)n1Cc1ccc2c(c1)OCO2
pIC50 (Pseudomonas aeruginosa [1]): 3.98
pIC50 (Salmonella typhimurium [2]): 4.01

Cc1ccc(CNc2ncccn2)cc1
inhibition (Salmonella typhimurium [5]): inactive

CCCCCCCCn1c(-c2ccc(-c3ccc(-c4ccccc4)cc3)cc2)cnc1N
pIC50 (Pseudomonas aeruginosa [1]): < 3.10
pIC50 (Salmonella typhimurium [2]): 3.07

Nc1ncc(-c2ccccc2)n1Cc1ccccc1
pIC50 (Pseudomonas aeruginosa [1]): 4.58
pIC50 (Salmonella typhimurium [2]): 4.26

O=[N+]([O-])c1ccc(-c2cn3cccnc3[n+]2Cc2ccccc2)cc1.[O-][Cl+3]([O-])([O-])[O-]
pIC50 (Pseudomonas aeruginosa [1]): < 3.10
pIC50 (Salmonella typhimurium [2]): 3.77

CC(C)n1c(-c2ccc([N+](=O)[O-])cc2)cnc1N
pIC50 (Pseudomonas aeruginosa [1]): < 3.10
pIC50 (Salmonella typhimurium [2]): 3.44

CCCCCCCNc1ncccn1
inhibition (Salmonella typhimurium [5]): inactive

c1cnc(NC2CCC2)nc1
inhibition (Salmonella typhimurium [5]): inactive

Cn1c(-c2ccc([N+](=O)[O-])cc2)cnc1N
pIC50 (Pseudomonas aeruginosa [1]): 4.16
pIC50 (Salmonella typhimurium [2]): 3.79

Nc1ncc(-c2ccc(Br)cc2)n1Cc1ccccc1
pIC50 (Pseudomonas aeruginosa [1]): 4.24
pIC50 (Salmonella typhimurium [2]): 4.13

c1cnc(NCc2ccc3c(c2)OCO3)nc1
inhibition (Salmonella typhimurium [5]): inactive

CCNc1ncccn1
inhibition (Salmonella typhimurium [5]): inactive

Cc1ccc(-c2cnc(N)n2C(C)C)cc1
pIC50 (Pseudomonas aeruginosa [1]): 3.62
pIC50 (Salmonella typhimurium [2]): 3.69

CCCCCCCCCCCNc1ncccn1
inhibition (Salmonella typhimurium [5]): inactive

CCCCCCCC[n+]1c(-c2ccc(S(C)(=O)=O)cc2)cn2cccnc21.[O-][Cl+3]([O-])([O-])[O-]
pIC50 (Pseudomonas aeruginosa [1]): 4.30
pIC50 (Salmonella typhimurium [2]): 4.09

c1cnc(NC2CCCC2)nc1
inhibition (Salmonella typhimurium [5]): inactive

O=[N+]([O-])c1ccc(-c2cn3cccnc3[n+]2C2CCCCC2)cc1.[O-][Cl+3]([O-])([O-])[O-]
pIC50 (Pseudomonas aeruginosa [1]): 3.60
pIC50 (Salmonella typhimurium [2]): 3.25

CCCCCCCCCCCCNc1ncccn1
inhibition (Salmonella typhimurium [5]): inactive

CCn1c(-c2ccc([N+](=O)[O-])cc2)cnc1N
pIC50 (Pseudomonas aeruginosa [1]): 3.90
pIC50 (Salmonella typhimurium [2]): 3.54
